Test results reported in US9271943B2, “Arsenic compound solution and albumin nanoparticle and lyophilized preparation entrapping arsenic compound prepared using same” (ZHEJIANG CHINESE MEDICAL UNIVERSITY, priority 2011, dated 2016).

Legend:
[1] = system: human B lymphoma cell line Daudi cells; experiment: Trypan blue count of survival and dead Daudi cells; assay type: cell-based; settings: for Death rate / the number of survival cells: Daudi cells
Procedure: (§1) Human lymphoma cell line cells are cultured in RPMI 1640 culture medium containing 10% new-born calf serum, placed in a 5% CO2 incubator, and cultured at 37° C. with saturated humidity. The medium is changed every 1-2 days. When the cells grow well, the drug is applied to the cells.
The growing well human B lymphoma cell line Daudi cells are cultured in a 24-well plate; each well is inoculated with 1 ml of the cell culture with a cell density of 1.5χ10^5/ml, and they are divided into experimental and control groups. […], the cells in each group are treated with the arsenic compound solution with respective concentration in terms of As2O3 added, for example, the cells in 0.8 μg/ml As2O3 group are treated with 0.8 μg/ml arsenic compound solution, and the arsenic compound solutions with different concentration are prepared by the following method: the arsenic compound solution obtained in Example 1 is first diluted with deionized water to 80 μg/ml, and then diluted to the desired concentration with 1640 culture fluid to obtain arsenic compound solutions with different concentration. The control group is added with a equal volume of culture fluid. The 24-well plate is placed in a 5% CO2 incubator, the cells are cultured at 37° C. and saturated humidity for a predetermined time, and then detected correspondingly. The cell suspensions are stained by physiological saline solution of 0.3% trypan blue for counting survival, dead cells; and the results are shown in Table 2: […]

[2] = system: human T-cell lymphoma cell line jurkat cells; experiment: Trypan blue count of survival and dead jurkat cells; assay type: cell-based; settings: for effect on proliferation / cell growth of jurkat cells: 0.2-0.8 μg/ml, 24, 48, 72 h; for Death rate / the number of survival cells / total number of the cells: jurkat cells
Procedure: as §1
The human T-cell lymphoma cell line jurkat cells in exponential growth phase are inoculated into a 24-well plate and cultured; 1 ml of jurkat cells with a cell density of 2χ10^5/ml are inoculated into each well, and the 24-well plate is placed in a 37° C., 5% CO2 incubator. Jurkat cells are treated with the arsenic compound solutions with different final As2O3 concentrations of 0, 0.2, 0.4, 0.8 μg/ml for 24, 48, 72 hours, and the arsenic compound solutions with different final As2O3 concentrations are prepared as follows: the arsenic compound solution obtained in Example 1 is first diluted with deionized water to 80 μg/ml, and then diluted to the desired concentration with 1640 culture fluid. The treated cell suspensions are stained with physiological saline solution of 0.3% trypan blue for determining survival, dead cell count, and the results shown in Table 3: […]

[3] = system: human T-cell lymphoma cell line jurkat cells; experiment: Cell apoptosis by AnnexinV/PI double staining flow cytometry; assay type: cell-based; settings: for Apoptotic rate / Early apoptotic rate / Early apoptotic rate + Apoptotic rate / Survival rate: jurkat cells, treated for 44 hours
Procedure: The human T-cell lymphoma cell line jurkat cells in exponential growth phase are inoculated into a 6-well plate and cultured; 3 ml of jurkat cells with a cell density of 2χ10^5/ml are inoculated into each well, and the 6-well plate is placed in a 37° C., 5% CO2 incubator. After being cultured for 4 hours, […], and the arsenic compound solutions with different final As2O3 concentrations are prepared as follows: the arsenic compound solution obtained in Example 1 is first diluted with deionized water to 80 μg/ml, and then diluted to the desired concentration with 1640 culture fluid. The control group is treated with an equivalent volume of 1640 culture fluid. After being treated for 44 hours, jurkat cells in the experimental and control groups with a cell density of 1χ10^6/ml are collected, and apoptosis is studied by AnnexinV/PI double staining flow cytometry.)
The cells in the experimental and control groups with a density of 1χ10^6 jurkat cells/ml are respectively collected, washed twice with PBS, and subjected to centrifugation at 1000 r/min for 5 min, and the supernatant is discarded. Each 100 μl of the cell suspension is mixed with 5 μL Annexin-V, and then mixed with 2 μL of propidium iodide (PI). The mixtures are incubated at room temperature and dark conditions for 15 min, then mixed with 400 μl of 1χAnnexin-V binding buffer after incubation, and placed in an ice water bath. Meanwhile, the flow cytometry instrument is subjected to regular correct, besides, the normal cells in the control group are collected to prepare positive control and negative control for dead cells and survival apoptotic cells to correct the instrument, so that the instrument has more precise control threshold for different characteristic samples. Then, the stained cells were detected by flow cytometry; and similar results are obtained by experiment repeated: […]

[4] = system: human T cell lymphoma cell line jurkat cells; experiment: Detection of apoptotic bodies by light microscopy; assay type: cell-based; settings: 0.8 μg/ml As2O3, 24 h, FIG. 12B
Procedure: Human B lymphoma cell line Daudi cells and human T lymphoma cell line jurkat cells in the control group and As2O3-treated group ([…]) which have been cultured for 24 h are collected to prepare smears, Wright-Giemsa stained, and observed under a light microscope to determine the morphological changes of cells.
1) apoptotic bodies: human B lymphoma cell line Daudi cells and human T-cell lymphoma cell line jurkat cells in the control group and in the As2O3-treated group which have been cultured or treated for 24 h are collected to prepare smears, subjected to the detection of apoptotic bodies and photographed. The results are shown in FIGS. 12A and 12B; FIG. 12A is a light microscopy image of apoptotic bodies of human T cell lymphoma cell line jurkat cells in the control group; and FIG. 12B is a light microscopy image of apoptotic bodies of human T cell lymphoma cell line jurkat cells treated with […] As2O3, and the […] As2O3 is prepared as follows: the arsenic compound solution obtained in Example 1 is first diluted with deionized water to 80 μg/ml, and then diluted to […] with 1640 culture fluid.

[5] = system: human T lymphoma cell lines jurkat cell; experiment: Mitochondrial membrane potential, JC-1 fluorescent probe; assay type: cell-based
From the text: Beyotime mitochondrial membrane potential detection kit (JC-1) is used; after the cells have been labeled with the fluorescent probe, they can be observed with a fluorescence microscope using conventional settings for observing red and green fluorescence, and photographed.
Measurement principle: The JC-1 fluorescent probe is used to detect mitochondrial potential; when the mitochondrial membrane potential is high, JC-1 aggregates in the mitochondrial matrix to form a polymer, which can produce red fluorescence; when the mitochondrial membrane potential is low, JC-1 can not aggregate in the mitochondrial matrix or the aggregation decreases, in this case, JC-1 exists in monomeric form and generates green fluorescence.
100 μl of suspension cultured cell liquid is centrifugalized and washed to obtain a sample. The sample is made into smears and observed by fluorescence microscopy, and three pictures are taken respectively by using conventional filter, red fluorescence, and green fluorescence sets in the same field of view. […]

[6] = system: human malignant B cell lymphoma cell line Raji cells; settings: Raji cells 2.0×10^5/ml, 0.5˜2.0 μmol/L As2O3, 24, 48, 72 hours; cited from earlier work
[7] = system: human T-cell lymphoma cell line jurkat cells; settings: jurkat cells 2.0×10^5/ml, As2O3 0.5, 1.0, 2.0, 4.0 μmol/L; cited from earlier work

## arsenic trioxide [As2O3]
[1]; 0.1-0.8 μg/ml, 20 h and 68 h, dose dependence
  effect on cell viability and growth of Daudi cells: significantly reduce the cell viability
[1]; As2O3 0.1 μg/ml, 20 h
  Death rate: 33%
  the number of survival cells: 1.40 10^5/ml
[1]; As2O3 0.1 μg/ml, 68 h
  Death rate: 66%
  the number of survival cells: 1.24 10^5/ml
[1]; As2O3 0.2 μg/ml, 20 h
  Death rate: 44%
  the number of survival cells: 1.27 10^5/ml
[1]; As2O3 0.2 μg/ml, 68 h
  Death rate: 75%
  the number of survival cells: 0.77 10^5/ml
[1]; As2O3 0.4 μg/ml, 20 h
  Death rate: 56%
  the number of survival cells: 0.99 10^5/ml
[1]; As2O3 0.4 μg/ml, 68 h
  Death rate: 88%
  the number of survival cells: 0.30 10^5/ml
[1]; As2O3 0.8 μg/ml, 20 h
  Death rate: 68%
  the number of survival cells: 0.58 10^5/ml
[1]; As2O3 0.8 μg/ml, 68 h
  Death rate: 98%
  the number of survival cells: 0.06 10^5/ml
[1]; comparison of Table 2 with Table 3
  sensitivity of Daudi cells to As2O3-induced cell death relative to jurkat cells: more sensitive
[2]
  effect on proliferation / cell growth of jurkat cells: can inhibit cell growth
[2]; listed as arsenic compound
  effect on proliferation / cell growth of jurkat cells: significant inhibitory effect
[2]; As2O3 0.2 μg/ml, 24 h
  Death rate: 5.2%
  the number of survival cells: 7.56 10^5/ml
  total number of the cells: 7.98 10^5/ml
[2]; As2O3 0.2 μg/ml, 48 h
  Death rate: 16%
  the number of survival cells: 10.29 10^5/ml
  total number of the cells: 12.18 10^5/ml
[2]; As2O3 0.2 μg/ml, 72 h
  Death rate: 46.1%
  the number of survival cells: 4.95 10^5/ml
  total number of the cells: 9.19 10^5/ml
[2]; As2O3 0.4 μg/ml, 24 h
  Death rate: 25.9%
  the number of survival cells: 4.87 10^5/ml
  total number of the cells: 6.57 10^5/ml
[2]; As2O3 0.4 μg/ml, 48 h
  Death rate: 34%
  the number of survival cells: 5.12 10^5/ml
  total number of the cells: 7.73 10^5/ml
[2]; As2O3 0.4 μg/ml, 72 h
  Death rate: 50.9%
  the number of survival cells: 3.66 10^5/ml
  total number of the cells: 7.45 10^5/ml
[2]; As2O3 0.8 μg/ml, 24 h
  Death rate: 47.3%
  the number of survival cells: 2.92 10^5/ml
  total number of the cells: 5.53 10^5/ml
[2]; As2O3 0.8 μg/ml, 48 h
  Death rate: 55%
  the number of survival cells: 2.5 10^5/ml
  total number of the cells: 5.61 10^5/ml
[2]; As2O3 0.8 μg/ml, 72 h
  Death rate: 69.7%
  the number of survival cells: 1.84 10^5/ml
  total number of the cells: 6.08 10^5/ml
[3]; R=0.997 (P<0.01), dose-dependent
  relation of jurkat cell apoptotic rate to concentration: positively correlated with the concentration
[3]; As2O3 0.2 μg/ml
  Apoptotic rate: 0.7%
  Early apoptotic rate: 6.5%
  Early apoptotic rate + Apoptotic rate: 7.2%
  Survival rate: 92.8%
[3]; As2O3 0.4 μg/ml
  Apoptotic rate: 1.4%
  Early apoptotic rate: 14.1%
  Early apoptotic rate + Apoptotic rate: 15.5%
  Survival rate: 84.5%
[3]; As2O3 0.8 μg/ml
  Apoptotic rate: 5.0%
  Early apoptotic rate: 26.1%
  Early apoptotic rate + Apoptotic rate: 31.0%
  Survival rate: 69.0%
[3]; As2O3 1.6 μg/ml
  Apoptotic rate: 15.8%
  Early apoptotic rate: 50.8%
  Early apoptotic rate + Apoptotic rate: 66.6%
  Survival rate: 33.4%
[4]
  morphological changes, apoptotic bodies: nuclear fragmentation, cellular debris and apoptotic bodies appear
[5]; 0.4 μg/m As2O3 treated group compared with control group
  number of the cells and red fluorescence intensity of JC-1 in the mitochondria: have decreased significantly
[5]; 0.8 As2O3 treated group compared with 0.4 μg/m group
  number of the cells and red fluorescence intensity of JC-1 in the cells: have also decreased significantly
[6]
  effect on cell growth (number of active cells): inhibited cell growth in a dose dependent manner
[7]
  effect on cell growth: did not inhibit cell growth
